We go through 10 molecules from patent US8715368B2, “Thiophene azo dyes and laundry care compositions containing the same” (The Procter & Gamble Company, priority 2010, dated 2014).

A short description of this data set: Aqueous Partition Value of a dye (water/1-octanol partitioning, absorbance at λmax). The following applies: deionized water/1-octanol 10.0 mL each, APV=(Af/Ai)×100%. It counts as physicochemical. The method, then:
Dissolve in deionized water to a final volume of 10.0 mL an amount of dye sufficient to provide a solution absorbance value between 0.25 and 1.0, said absorbance being determined at the dye λmax between 400 nm and 750 nm, using a cuvette with 1.0 cm path length. Measure the absorbance of the sample at the dye λmax in a UV/Vis spectrophotometer, then transfer the entire 10.0 mL solution to a 50.0 mL plastic centrifuge tube. Add 10.0 mL of 1-octanol, cap the tube, and mix vigorously for 30 seconds using a Vortex™ mixer. Leave the tube standing undisturbed until the layers cleanly phase separate.
Using a transfer pipette, withdraw an aliquot of the aqueous (bottom) layer and transfer it to a cuvette with 1.0 cm path length for spectrophotometric analysis. Analyze the solution as before, and quantify the absorbance loss at λmax as “% of Dye Remaining in Aqueous Layer” as detailed below: % of Dye Remaining in Aqueous Layer=Aqueous Partition Value (APV)=(Af/Ai)×100% wherein Ai is the initial solution absorbance at λmax and Af is the final solution absorbance at λmax. II. Method for Determining Hueing Efficiency for Detergents • a.) Two 25 cm×25 cm fabric swatches of 16 oz white cotton interlock knit fabric (270 g/square meter, brightened with Uvitex BNB fluorescent whitening agent, from Test Fabrics. P.O. Box 26, Weston, Pa., 18643) are obtained. • b.) Prepare two one liter aliquots of tap water containing 1.55 g of AATCC standard heavy duty liquid (HDL) test detergent. • c.) Add a sufficient amount the dye to be tested to one of the aliquots from Step b.) above to produce an aqueous solution absorbance of 1 AU. • d.) Wash one swatch from a.) above in one of the aliquots of water containing 1.55 g of AATCC standard heavy duty liquid (HDL) test detergent and wash the other swatch in the other aliquot. Such washing step should be conducted for 30 minutes at room temperature with agitation. After such washing step separately rinse the swatches in tap water and air dry the swatches in the dark. • e.) After rinsing and drying each swatch, the hueing efficiency, DE*eff, of the dye is assessed by determining the L*, a*, and b* value measurements of each swatch using a Hunter LabScan XE reflectance spectrophotometer with D65 illumination, 10° observer and UV filter excluded. The hueing efficiency of the dye is then calculated using the following equation: DE*eff=((L*c−L*s)^2+(a*c−a*s)^2+(b*c−b*s)^2)^1/2 • wherein the subscripts c and s respectively refer to the L*, a*, and b* values measured for the control, i.e., the fabric sample washed in detergent with no dye, and the fabric sample washed in detergent containing the dye to be screened. III. Method for Determining Wash Removability • a.) Prepare two separate 150 ml aliquots of HDL detergent solution, according to AATCC Test Method 61-2003, Test 2A and containing 1.55 g/liter of the AATCC HDL formula in distilled water. • b.) A 15 cm×5 cm sample of each fabric swatch from the Method for Determining of Hueing Efficiency For Detergents described above is washed in a Launderometer for 45 minutes at 49° C. in 150 ml of a the HDL detergent solution prepared according to Step 11. a.) above. • c.) The samples are rinsed with separate aliquots of rinse water and air dried in the dark, and then L*, a*, and b* value measurements of each swatch are taken using a Hunter LabScan XE reflectance spectrophotometer with D65 illumination, 10° observer and UV filter excluded. The amount of residual coloration is assessed by measuring the DE*res, calculated using the following equation: DE*res=((L*c−L*s)^2+(a*c−a*s)^2+(b*c−b*s)^2)^1/2 • wherein the subscripts c and s respectively refer to the L*, a*, and b* values measured for the control, i.e., the fabric sample initially washed in detergent with no dye, and the fabric sample initially washed in detergent containing the dye to be screened. The wash removal value for the dye is then calculated according to the formula: % removal=100×(1−DE*res/DE*eff). C. Test Results […]
In the case of `COc1cc(/N=N/c2sc(C#N)c(C)c2C#N)c(C)cc1N(CCOCCOCC[N+](CCO)(CCO)CCO)CCOCC[N+](CCO)(CCO)CCO` [Example 22], the “% Dye in Water Layer” value is recorded as 56%. For `CCN(CCOCCOCCOCCOCC[N+](CC)(CC)CC)c1ccc(/N=N/c2sc(C#N)c(C)c2C#N)c(C)c1` [Example 12], the “% Dye in Water Layer” value was determined as 15%. Next, `COc1cc(/N=N/c2sc(C#N)c(C)c2C#N)c(C)cc1N(CCOCCOCC[N+](C)(C)CCO)CCOCC[N+](C)(C)CCO` [Example 21]: 75%; `Cc1cc(N(CCn2cc[n+](C)c2)CCn2cc[n+](C)c2)ccc1/N=N/c1sc(C#N)c(C)c1C#N` [Example 2]: 83%. `CCN(CC[N+](CC)(CC)CC)c1ccc(/N=N/c2sc(C#N)c(C)c2C#N)c(C)c1` [Example 7]: the “% Dye in Water Layer” value is 15%. Next, `CC[N+](CC)(CC)CCOCCOCCN(CCOCC[N+](CC)(CC)CC)c1ccc(/N=N/c2sc(C#N)c(C)c2C#N)c(C)c1` [Example 35]: 66%; `CC[N+](CC)(CC)CCOCCOCCN(CCOCC[N+](CC)(CC)CC)c1cc(C)c(/N=N/c2sc(C#N)c(C)c2C#N)cc1OC` [Example 18]: 49%.

On to `CC[N+](CC)(CC)CCOCCOCCN(CCOCC[N+](CC)(CC)CC)c1cc(OC)c(/N=N/c2sc(C#N)c(C)c2C#N)cc1OC` [Example 19], for which the “% Dye in Water Layer” value was determined as 78%. Consider `COc1cc(/N=N/c2sc(C#N)c(C)c2C#N)c(C)cc1N(CCn1cc[n+](C)c1)CCn1cc[n+](C)c1` [Example 1], for which the “% Dye in Water Layer” value amounted to 97%.

For the molecule `CC[N+](CC)(CC)CCN(CC[N+](CC)(CC)CC)c1ccc(/N=N/c2sc(C#N)c(C)c2C#N)c(C)c1` [Example 36], the “% Dye in Water Layer” value was 94%.
